From patent US11999794B2, “Human mesothelin chimeric antigen receptors and uses thereof” (Novartis AG, priority 2013, dated 2024)
“Also recorded” adds a separate entry of the source. Read-outs that look alike come from different tables or passages of the source. Marks after values point to notes of the source that are not given here.

B1: M5: human anti-mesothelin scFv SEQ ID NO: 43; full CAR SEQ ID NO: 67 (protein)
scFv: QVQLVQSGAEVEKPGASVKVSCKASGYTFTDYYMHWVRQAPGQGLEWMGWINPNSGGTNYAQKFQGRVTMTRDTSISTAYMELSRLRSDDTAVYYCASGWDFDYWGQGTLVTVSSGGGGSGGGGSGGGGSGGGGSDIVMTQSPSSLSASVGDRVTITCRASQSIRYYLSWYQQKPGKAPKLLIYTASILQNGVPSRFSGSGSGTDFTLTISSLQPEDFATYYCLQTYTTPDFGPGTKVEIK

Experiments:
[1] = tested on: P70 S6K; assay: Percent inhibition of P70 S6K activity in HeLa cells in vitro; details: concentrations from 30 pM to 4 nM
[2] = cited from earlier work
[3] = tested on: A/H3N2 strain A/Victoria/361/11; assay: HI titers and seroconversion, heterologous strain; assay type: in vivo, human; details: for Percentage of subjects who seroconvert to heterologous strain A/H3N2 A/Victoria/361/11: 4 weeks after seasonal influenza vaccination, odds ratio vs placebo p < 0.05
[4] = tested on: A/H1N1/California/07/2009; assay: Anti-influenza IgG and IgM levels in serum; assay type: in vivo, human; details: vs placebo cohorts
Procedure: The trial was observer-blind because the placebo in the RAD001 0.5 mg daily and 20 mg weekly cohorts differed slightly from the RAD001 tablets in those cohorts. […] The treatment duration for all cohorts was 6 weeks during which time subjects underwent safety evaluations in the clinic every 2 weeks. After subjects had been dosed for 4 weeks, RAD001 steady state levels were measured pre-dose and at one hour post dose. […] Antibody titers to the 3 influenza vaccine strains as well as to 2 heterologous strains (A/H1N1 strain A/New Jersey/8/76 and A/H3N2 strain A/Victoria/361/11) were measured by standard hemagglutination inhibition assay (Kendal, A P et al. (1982) Concepts and procedures for laboratory-based influenza surveillance. Atlanta: Centers for Disease Control and Prevention B17-B35). Levels of IgG and IgM specific for the A/H1N1/California/07/2009 were measured in serum samples taken before and 4 weeks after influenza vaccination as described previously (Spensieri, F. et al. (2013) Proc. Natl. Acad. Sci. USA 110:14330-14335). Results were expressed as fluorescence intensity.

[5] = target: T1, hMSLN296-588 (Homo sapiens, UniProt Q13421, N388Q/N488Q/N515Q); assay: Hydrogen-deuterium exchange mass spectrometry epitope mapping; assay type: binding; details: amino acid position 297 to 464
T1 construct: secretion signal […]; made in house; host or cells: Expi293 (alone, or co-expressed with scFv M5)
T1 sequence (Q13421 with tags, fused parts or gaps N388Q/N488Q/N515Q): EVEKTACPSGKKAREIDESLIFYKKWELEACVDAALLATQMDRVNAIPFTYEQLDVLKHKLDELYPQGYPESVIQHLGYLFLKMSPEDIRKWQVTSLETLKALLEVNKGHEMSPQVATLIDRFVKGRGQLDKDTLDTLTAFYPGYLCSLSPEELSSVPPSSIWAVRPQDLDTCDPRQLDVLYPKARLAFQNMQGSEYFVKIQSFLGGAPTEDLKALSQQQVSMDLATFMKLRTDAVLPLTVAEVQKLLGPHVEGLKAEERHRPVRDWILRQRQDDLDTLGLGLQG
Description: Hydrogen-deuterium exchange (HDx) in combination with mass spectrometry (MS) (Woods V L, Hamuro Y (2001) High Resolution, High-Throughput Amide Deuterium Exchange-Mass Spectrometry (DXMS) Determination of Protein Binding Site Structure and Dynamics: Utility in Pharmaceutical Design. J. Cell. Biochem. Supp.; 84(37): 89-98.) was used to map the putative binding site of scFv antibodies M5 and SS1 on human mesothelin(296-588), referred to herein as hMSLN296-588 (SEQ ID No 278). In HDx, exchangeable amide hydrogens of proteins are replaced by deuterium. This process is sensitive to protein structure/dynamics and solvent accessibility and, therefore, able to report on locations that undergo a decrease in deuterium uptake upon ligand binding.
HDx/MS experiments were performed using methods similar to those described in the literature (Chalmers M J, Busby S A, Pascal B D, He Y, Hendrickson C L, Marshall A G, Griffin P R (2006) Probing protein ligand interactions by automated hydrogen/deuterium exchange mass spectrometry. Anal. Chem.; 78(4): 1005-1014.Chalmers, 2006). The experiments were performed on a Waters HDx/MS platform, which included a LEAP autosampler, nanoACQUITY UPLC, and Synapt G2 mass spectrometer. […]

| Molecule | effect on P70 S6K activity in cell lines [1] | trough level ([2]; 10 mg daily oncology dosing regimen) | trough level ([2]; 0.75-1.5 mg bid transplant dosing regimen) | increase in seroconversion rate, H3N2 heterologous strain ([3]; 5 and 20 mg weekly dosing cohorts) | Percentage of subjects who seroconvert to heterologous strain A/H3N2 A/Victoria/361/11 ([3]; RAD001 5 mg weekly) | Percentage of subjects who seroconvert to heterologous strain A/H3N2 A/Victoria/361/11 ([3]; RAD001 20 mg weekly) | H3N2 seroconversion rate, heterologous strain ([3]; pooled RAD001 cohorts, p=0.007 vs placebo) | post-vaccination anti-influenza IgM and IgG levels [4] | mesothelin peptides significantly protected from deuterium uptake [5] |
| --- | --- | --- | --- | --- | --- | --- | --- | --- | --- |
| CO[C@H]1C[C@@H]2CC[C@@H](C)[C@@](O)(O2)C(=O)C(=O)N2CCCC[C@H]2C(=O)O[C@H]([C@H](C)C[C@@H]2CC[C@@H](OCCO)[C@H](OC)C2)CC(=O)[C@H](C)/C=C(\C)[C@@H](O)[C@@H](OC)C(=O)[C@H](C)C[C@H](C)/C=C/C=C/C=C/1C [RAD001, (1R,9S,12S,15R,16E,18R,19R,21R,23 S,24E,26E,28E,30S,32S,35R)-1,18-dihydroxy-12-{(1R)-2-[(1 S,3R,4R)-4-(2-hydroxyethoxy)-3-methoxycyclohexyl]-1-methylethyl}-19,30-dimethoxy-15,17,21,23,29,35-hexamethyl-11,36-dioxa-4-aza-tricyclo[30.3.1.04,9]hexatriaconta-16,24,26,28-tetraene-2,3,10,14,20-pentaone] | partially inhibited P70 S6K activity | approximately 20 ng/ml | approximately 3 ng/ml | statistically significant | 39%* | 40% * | 39% | No significant difference; also recorded: did not differ | – |
| B1 | – | – | – | – | – | – | – | – | no protection |
